US12171734B2, “Pathogenic bacteria” (Sporegen Limited, priority 2018, dated 2024)

Test system: multi-drug resistant M. tuberculosis (Peru isolate)
Assay: microbe, parasite or virus in culture
Type: cell-based
Details: Mycobacterium tuberculosis, 240 h, read-out: MIC, MDR-TB Peru isolate

SMILES | MIC [µg/mL]
CO[C@H]1/C=C/O[C@@]2(C)Oc3c(C)c(O)c4c(O)c(c(/C=N/N5CCN(C)CC5)c(O)c4c3C2=O)NC(=O)/C(C)=C\C=C\[C@H](C)[C@H](O)[C@@H](C)[C@@H](O)[C@@H](C)[C@H](OC(C)=O)[C@@H]1C [Rifampicin] | > 4
NNC(=O)c1ccncc1 [Isoniazid] | > 4
